{"source": "paper PMC3130785", "about": "“Small Compound 6-O-Angeloylplenolin Induces Mitotic Arrest and Exhibits Therapeutic Potentials in Multiple Myeloma” (PLoS ONE, 2011)", "key": {"phosphorylated H3 (pH3)": {"tested_on": "phosphorylated H3 (pH3)", "experiment": "Western blotting of mitotic marker", "type": "cell-based, human", "conditions": "U266, MM.1S and CD138+ primary cells; 24 h", "experimental": "(§1) Cell pellets were lysed in RIPA buffer containing 50 mM Tris pH 8.0, 150 mM NaCl, 0.1% SDS, 0.5% deoxycholate, 1% NP-40, 1 mM DTT, 1 mM NaF, 1 mM sodium vanadate, and protease inhibitors cocktail (Sigma). For immunoprecipitations, cells were lysed on ice for 15 minutes in RIPA buffer. Lysates were centrifuged. The supernatant was incubated with indicated antibodies overnight, after which protein A/G Plus beads (Santa Cruz Biotechnology) were added and incubated for 3 h. The beads were washed 4 times in RIPA buffer. Then the beads were resuspended in 1× sample buffer and boiled for 3 min. Protein extracts were quantitated and loaded on 8% to 12% sodium dodecyl sulfate polyacrylamide gel, electrophoresed, and transferred to a nitrocellulose membrane (Whatman). The membrane was incubated with primary antibody, washed, and incubated with horseradish peroxidase (HRP)–conjugated secondary antibody (Pierce). Detection was performed by using a chemiluminescent western detection kit (Cell Signaling). […]\nFigure 2 6-OAP induces mitotic arrest in MM cells. […] Cell cycle distribution was determined by flow cytometry. […] Cell cycle distribution was determined by flow cytometry. […]"}, "pJak2 and pStat3": {"tested_on": "pJak2 and pStat3", "experiment": "Western blotting, IL-6 stimulation", "type": "cell-based, human", "conditions": "MM.1S", "experimental": "as §1\nFigure 5 6-OAP overcomes the protective effects of IL-6, IGF-I and BMSCs on MM cells. […] Cell proliferation was assessed by MTT assay. […] Cell proliferation was assessed by MTT assay. *p<.01,** p<.05. […]"}}}
{"smiles": "CC=C(C)C(=O)OC1C2C(CC(C)C3C=CC(=O)C31C)OC(=O)C2C", "note": "(stereo not drawn) [6-OAP, 6-O-angeloylplenolin]", "values": [{"measurement": "expression of pH3", "setting": "phosphorylated H3 (pH3)", "value": "up-regulated pH3"}, {"measurement": "pStat3 in cells upon IL-6", "setting": "pJak2 and pStat3; IL-6 10 ng/ml, then 6-OAP 5 to 10 µM for 12 h", "value": "dramatically reduced"}, {"measurement": "IL-6-induced pJak2 and pStat3", "setting": "pJak2 and pStat3; pretreatment 6-OAP for 12 hours, IL-6 10 ng/ml 10 to 30 min", "value": "markedly inhibited IL-6-induced upregulation of pJak2 and pStat3"}]}
